Assay results from US10377753B2, “Substituted 4-azaindoles and their use as GluN2B receptor modulators” (Janssen Pharmaceutica NV, priority 2015, dated 2019).

Target: cloned human NR1/NR2B ion channels (Homo sapiens (Human), UniProt Q05586+Q13224)
Assay: HNR2BC: effects of test articles on cloned human NR1/NR2B ion channels expressed in mammalian cells (FLIPR calcium flux)
Format: cell-based
Conditions: cloned human NR1/NR2B, Table 5
Procedure, shortened: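 Compounds were added to dye-loaded cells for 5 min with fluorescence monitored for agonism, followed by co-agonists (glutamate ~EC80, glycine 10 μM saturating) for 5 min. Cells stably expressed inducible human NR1/NR2B, and the buffer was pH 7.4. The FLIPR Ca2+ flux signal was normalized against control wells.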

Chain of cloned human NR1/NR2B ion channels (Q13224 27-1484, other chains not shown): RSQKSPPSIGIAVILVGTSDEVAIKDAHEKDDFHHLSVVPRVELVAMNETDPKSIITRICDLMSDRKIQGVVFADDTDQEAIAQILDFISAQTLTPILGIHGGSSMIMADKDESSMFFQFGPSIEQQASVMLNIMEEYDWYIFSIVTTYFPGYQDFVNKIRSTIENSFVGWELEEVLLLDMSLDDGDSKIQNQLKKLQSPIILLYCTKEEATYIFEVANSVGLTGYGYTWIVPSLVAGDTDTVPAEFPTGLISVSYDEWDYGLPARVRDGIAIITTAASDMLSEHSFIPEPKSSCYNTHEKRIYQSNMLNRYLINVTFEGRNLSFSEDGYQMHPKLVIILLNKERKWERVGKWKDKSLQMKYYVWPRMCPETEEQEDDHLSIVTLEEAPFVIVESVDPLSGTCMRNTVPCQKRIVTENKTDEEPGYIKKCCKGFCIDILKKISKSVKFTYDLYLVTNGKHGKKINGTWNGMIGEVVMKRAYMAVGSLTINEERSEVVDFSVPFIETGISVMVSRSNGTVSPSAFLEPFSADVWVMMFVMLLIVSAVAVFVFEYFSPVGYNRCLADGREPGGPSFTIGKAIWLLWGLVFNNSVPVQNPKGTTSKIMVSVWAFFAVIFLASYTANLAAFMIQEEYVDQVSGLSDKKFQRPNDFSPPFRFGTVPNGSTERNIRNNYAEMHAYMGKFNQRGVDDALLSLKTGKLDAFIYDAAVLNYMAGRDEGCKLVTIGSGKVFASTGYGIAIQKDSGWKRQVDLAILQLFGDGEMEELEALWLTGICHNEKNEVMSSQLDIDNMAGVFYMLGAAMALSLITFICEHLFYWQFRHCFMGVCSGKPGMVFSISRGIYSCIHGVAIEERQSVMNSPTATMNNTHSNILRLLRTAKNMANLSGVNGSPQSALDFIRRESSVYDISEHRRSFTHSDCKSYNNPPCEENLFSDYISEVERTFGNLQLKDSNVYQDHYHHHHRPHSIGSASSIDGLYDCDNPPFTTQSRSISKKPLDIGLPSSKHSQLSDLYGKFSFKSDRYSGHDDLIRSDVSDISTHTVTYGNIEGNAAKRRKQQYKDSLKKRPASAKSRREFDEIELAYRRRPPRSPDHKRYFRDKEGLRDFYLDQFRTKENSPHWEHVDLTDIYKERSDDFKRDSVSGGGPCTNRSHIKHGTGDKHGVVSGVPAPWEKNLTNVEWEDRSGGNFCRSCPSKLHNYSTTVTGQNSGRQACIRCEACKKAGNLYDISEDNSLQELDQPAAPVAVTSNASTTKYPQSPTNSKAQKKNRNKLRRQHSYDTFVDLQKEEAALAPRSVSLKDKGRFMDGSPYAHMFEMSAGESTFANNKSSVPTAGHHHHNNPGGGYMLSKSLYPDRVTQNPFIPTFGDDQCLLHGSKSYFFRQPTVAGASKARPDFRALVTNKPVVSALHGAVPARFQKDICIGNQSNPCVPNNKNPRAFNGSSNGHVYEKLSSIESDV

| IC50 [µM] | pIC50 | SMILES |
| --- | --- | --- |
| 1.58 | – | CCc1cccc(-c2cnc3ccn(CC(=O)N4CCOCC4)c3c2)c1 [Example 91, 2-[6-(3-ethylphenyl)pyrrolo[3,2-b]pyridin-1-yl]-1-morpholino-ethanone] |
| 0.126 | – | Cc1cc(-c2cnc3c(F)cn(CC(=O)N(C)C)c3c2)ccc1F [Example 92, 2-[3-Fluoro-6-(4-fluoro-3-methyl-phenyl)pyrrolo[3,2-b]pyridin-1-yl]-N,N-dimethyl-acetamide] |
| 0.0398 | – | CN(C)C(=O)Cn1cc(F)c2ncc(-c3ccc(F)c(F)c3)cc21 [Example 93, 2-[6-(3,4-Difluorophenyl)-3-fluoro-pyrrolo[3,2-b]pyridin-1-yl]-N,N-dimethyl-acetamide] |
| 0.0631 | – | CN(C)C(=O)Cn1cc(F)c2ncc(-c3cc(F)c(F)c(F)c3)cc21 [Example 94, 2-[3-Fluoro-6-(3,4,5-trifluorophenyl)pyrrolo[3,2-b]pyridin-1-yl]-N,N-dimethyl-acetamide] |
| 0.0501 | – | Cc1csc(-c2cnc3c(F)cn(CC(=O)N(C)C)c3c2)c1 [Example 96, 2-[3-Fluoro-6-(4-methyl-2-thienyl)pyrrolo[3,2-b]pyridin-1-yl]-N,N-dimethyl-acetamide] |
| 0.0501 | – | CN(C)C(=O)Cn1cc(F)c2ncc(-c3ccc(F)cc3)cc21 [Example 98, 2-[3-Fluoro-6-(4-fluorophenyl)pyrrolo[3,2-b]pyridin-1-yl]-N,N-dimethyl-acetamide] |
| 0.631 | – | O=C(Cn1ccc2ncc(-c3cncc(C(F)(F)F)c3)cc21)NC1CC1 [Example 99, N-Cyclopropyl-2-[6-[5-(trifluoromethyl)-3-pyridyl]pyrrolo[3,2-b]pyridin-1-yl]acetamide] |
| 1 | – | O=C(Cn1ccc2ncc(-c3ccc(F)c(F)c3)cc21)NC1CC1 [Example 100, N-Cyclopropyl-2-[6-(3,4-difluorophenyl)pyrrolo[3,2-b]pyridin-1-yl]acetamide] |
| 0.251 | – | O=C(Cn1ccc2ncc(-c3ccc(F)c(F)c3)cc21)N1CCC1 [Example 103, 1-(Azetidin-1-yl)-2-[6-(3,4-difluorophenyl)pyrrolo[3,2-b]pyridin-1-yl]ethanone] |
| 0.0398 | – | O=C(Cn1ccc2ncc(-c3ccc(F)c(C(F)(F)F)c3)cc21)N1CCCC1 [Example 105, 2-[6-[4-Fluoro-3-(trifluoromethyl)phenyl]pyrrolo[3,2-b]pyridin-1-yl]-1-pyrrolidin-1-yl-ethanone] |
| 0.316 | – | O=C(Cn1ccc2ncc(-c3ccc(F)c(C(F)(F)F)c3)cc21)N1CC(F)(F)C1 [Example 106, 1-(3,3-Difluoroazetidin-1-yl)-2-[6-[4-fluoro-3-(trifluoromethyl)phenyl]pyrrolo[3,2-b]pyridin-1-yl]ethanone] |
| 0.158 | – | O=C(Cn1ccc2ncc(-c3ccc(F)c(F)c3)cc21)N1CCOCC1 [Example 107, 2-[6-(3,4-Difluorophenyl)pyrrolo[3,2-b]pyridin-1-yl]-1-morpholino-ethanone] |
| 0.126 | – | O=C(Cn1ccc2ncc(-c3ccc(F)c(C(F)(F)F)c3)cc21)N1CCOCC1 [Example 108, 2-[6-[4-Fluoro-3-(trifluoromethyl)phenyl]pyrrolo[3,2-b]pyridin-1-yl]-1-morpholino-ethanone] |
| 0.398 | – | O=C(Cn1ccc2ncc(-c3cccc(C(F)(F)F)n3)cc21)NC1CC1 [Example 111, N-Cyclopropyl-2-[6-[6-(trifluoromethyl)-2-pyridyl]pyrrolo[3,2-b]pyridin-1-yl]acetamide] |
| 5.01 | – | N#Cc1ccc(-c2cnc3ccn(CC(=O)N4CCC4)c3c2)cn1 [Example 113, 5-[1-[2-(Azetidin-1-yl)-2-oxo-ethyl]pyrrolo[3,2-b]pyridin-6-yl]pyridine-2-carbonitrile] |
| > 10 | – | Fc1ccc(-c2cnc3ccn(Cc4cncnc4)c3c2)cc1F [Example 114, 6-(3,4-Difluorophenyl)-1-(pyrimidin-5-ylmethyl)pyrrolo[3,2-b]pyridine] |
| 0.316 | – | Fc1cnc(Cn2ccc3ncc(-c4ccc(F)c(F)c4)cc32)nc1 [Example 115, 6-(3,4-Difluorophenyl)-1-[(5-fluoropyrimidin-2-yl)methyl]pyrrolo[3,2-b]pyridine] |
| 0.794 | – | O=C(C1CCC1)n1ccc2ncc(-c3ccc(F)c(F)c3)cc21 [Example 116, Cyclobutyl-[6-(3,4-difluorophenyl)pyrrolo[3,2-b]pyridin-1-yl]methanone] |
| 0.0316 | – | O=C(Cn1ccc2ncc(-c3cc(F)c(F)c(F)c3)cc21)N1CC(F)(F)C1 [Example 124, 1-(3,3-Difluoroazetidin-1-yl)-2-[6-(3,4,5-trifluorophenyl)pyrrolo[3,2-b]pyridin-1-yl]ethanone] |
| 0.0316 | – | O=C(Cn1ccc2ncc(-c3cc(F)cc(F)c3)cc21)N1CCOCC1 [Example 125, 2-[6-(3,5-Difluorophenyl)pyrrolo[3,2-b]pyridin-1-yl]-1-morpholino-ethanone] |
| 0.158 | – | O=C(Cn1ccc2ncc(-c3cc(F)c(F)c(F)c3)cc21)N1CCOCC1 [Example 127, 1-Morpholino-2-[6-(3,4,5-trifluorophenyl)pyrrolo[3,2-b]pyridin-1-yl]ethanone] |
| 0.0631 | – | O=C(Cn1ccc2ncc(-c3ccc(F)c(F)c3)cc21)N1CC(F)C1 [Example 128, 2-[6-(3,4-Difluorophenyl)pyrrolo[3,2-b]pyridin-1-yl]-1-(3-fluoroazetidin-1-yl)ethanone] |

Further lines, the compound ahead of its results:

| SMILES | IC50 [µM] | pIC50 |
| --- | --- | --- |
| Cc1ccc(-c2cnc3ccn(CC(=O)N4CCOCC4)c3c2)cc1 [Example 90, 1-Morpholino-2-[6-(p-tolyl)pyrrolo[3,2-b]pyridin-1-yl]ethanone] | 0.0631 | – |
| CN(C)C(=O)Cn1cc(F)c2ncc(-c3cccc(C(F)F)c3)cc21 [Example 95, 2-[6-[3-(Difluoromethyl)phenyl]-3-fluoro-pyrrolo[3,2-b]pyridin-1-yl]-N,N-dimethyl-acetamide] | 0.0398 | – |
| CN(C)C(=O)Cn1cc(F)c2ncc(-c3ccc(Cl)s3)cc21 [Example 97, 2-[6-(5-Chloro-2-thienyl)-3-fluoro-pyrrolo[3,2-b]pyridin-1-yl]-N,N-dimethyl-acetamide] | 0.0631 | – |
| O=C(Cn1ccc2ncc(-c3ccc(F)c(C(F)(F)F)c3)cc21)NC1CC1 [Example 101, N-Cyclopropyl-2-[6-[4-fluoro-3-(trifluoromethyl)phenyl]pyrrolo[3,2-b]pyridin-1-yl]acetamide] | 0.2 | – |
| O=C(Cn1ccc2ncc(-c3cncc(C(F)(F)F)c3)cc21)N1CCC1 [Example 102, 1-(Azetidin-1-yl)-2-[6-[5-(trifluoromethyl)-3-pyridyl]pyrrolo[3,2-b]pyridin-1-yl]ethanone] | 0.398 | – |
| O=C(Cn1ccc2ncc(-c3ccc(F)c(C(F)(F)F)c3)cc21)N1CCC1 [Example 104, 1-(Azetidin-1-yl)-2-[6-[4-fluoro-3-(trifluoromethyl)phenyl]pyrrolo[3,2-b]pyridin-1-yl]ethanone] | 0.0316 | – |
| O=C(Cn1ccc2ncc(-c3ccnc(C(F)(F)F)c3)cc21)N1CCC1 [Example 109, 1-(Azetidin-1-yl)-2-[6-[2-(trifluoromethyl)-4-pyridyl]pyrrolo[3,2-b]pyridin-1-yl]ethanone] | 0.158 | – |
| O=C(Cn1ccc2ncc(-c3ccnc(C(F)(F)F)c3)cc21)NC1CC1 [Example 110, N-Cyclopropyl-2-[6-[2-(trifluoromethyl)-4-pyridyl]pyrrolo[3,2-b]pyridin-1-yl]acetamide] | 0.251 | – |
| Cc1ccc(-c2cnc3ccn(CC(=O)N4CCC4)c3c2)cn1 [Example 112, 1-(Azetidin-1-yl)-2-[6-(6-methyl-3-pyridyl)pyrrolo[3,2-b]pyridin-1-yl]ethanone] | 0.501 | – |
| O=C(Cn1ccc2ncc(-c3cccc(C(F)(F)F)n3)cc21)N1CC(F)(F)C1 [Example 117, 1-(3,3-Difluoroazetidin-1-yl)-2-[6-[6-(trifluoromethyl)-2-pyridyl]pyrrolo[3,2-b]pyridin-1-yl]ethanone] | 5.01 | – |
| O=C(Cn1ccc2ncc(-c3ccc(F)c(F)c3F)cc21)N1CCC1 [Example 118, 1-(Azetidin-1-yl)-2-[6-(2,3,4-trifluorophenyl)pyrrolo[3,2-b]pyridin-1-yl]ethanone] | 0.1 | – |
| O=C(CC1CC1)n1ccc2ncc(-c3ccc(F)c(F)c3)cc21 [Example 119, 2-Cyclopropyl-1-[6-(3,4-difluorophenyl)pyrrolo[3,2-b]pyridin-1-yl]ethanone] | 0.0501 | – |
| O=C(Cn1ccc2ncc(-c3ccc(F)c(F)c3F)cc21)N1CCCC1 [Example 120, 1-Pyrrolidin-1-yl-2-[6-(2,3,4-trifluorophenyl)pyrrolo[3,2-b]pyridin-1-yl]ethanone] | 0.631 | – |
| O=C(Cn1ccc2ncc(-c3cc(F)cc(F)c3)cc21)N1CC(F)(F)C1 [Example 121, 1-(3,3-difluoroazetidin-1-yl)-2-[6-(3,5-difluorophenyl)pyrrolo[3,2-b]pyridin-1-yl]ethanone] | 0.0631 | – |
| O=C(Cn1ccc2ncc(-c3cc(F)cc(F)c3)cc21)N1CCCC1 [Example 122, 2-[6-(3,5-Difluorophenyl)pyrrolo[3,2-b]pyridin-1-yl]-1-pyrrolidin-1-yl-ethanone] | 0.0398 | – |
| O=C(Cn1ccc2ncc(-c3cc(F)c(F)c(F)c3)cc21)N1CCCC1 [Example 123, 1-Pyrrolidin-1-yl-2-[6-(3,4,5-trifluorophenyl)pyrrolo[3,2-b]pyridin-1-yl]ethanone] | 0.02 | – |
| O=C(Cn1ccc2ncc(-c3ccc(F)c(F)c3F)cc21)N1CCOCC1 [Example 126, 1-Morpholino-2-[6-(2,3,4-trifluorophenyl)pyrrolo[3,2-b]pyridin-1-yl]ethanone] | 0.1 | – |
| O=C(Cn1ccc2ncc(-c3cc(F)cc(F)c3)cc21)N1CC(F)C1 [Example 129, 2-[6-(3,5-Difluorophenyl)pyrrolo[3,2-b]pyridin-1-yl]-1-(3-fluoroazetidin-1-yl)ethanone] | 0.0251 | – |
| Cc1csc(-c2cnc3ccn(Cc4cccnn4)c3c2)c1 [Example 130, 6-(4-Methyl-2-thienyl)-1-(pyridazin-3-ylmethyl)pyrrolo[3,2-b]pyridine] | – | 7.7 |
| Fc1ccc(-c2cnc3ccn(Cc4cccnn4)c3c2)cc1F [Example 131, 6-(3,4-Difluorophenyl)-1-(pyridazin-3-ylmethyl)pyrrolo[3,2-b]pyridine] | 0.126 | – |
